“Also recorded” adds a separate entry of the source. Like-named read-outs stand apart in the source and are kept apart here.
Legend:
[1] = tested on: Bacopa monnieri leaf, internode and twig cuttings; test: Response of leaf, internode and twig cutting explants to growth promoters (auxins, cytokinins) in MS 0 medium; type: in vivo; conditions: for Response observed, Cutting: MS 0 medium containing 1.0 mg/litre; for Response observed, Cutting / Response observed, Internode / Response observed, Leaf: recorded up to two weeks; for Response of leaf, internode and cuttings: MS 0 supplemented at 0.5 and 1.0 mg/litre
Description: Initially the experiments were designed to observe the response of leaf, internode and cuttings against growth promoters (auxins: 2,4-D & Indole acetic acid) and […] (cytokinins: 6-Benzyl amino purine & kinetin). The basal medium for studying the response was MS 0 (Murashige T and Skoog F, 1962, Physiol. Planta. 15: 473–497) supplemented with these growth regulators at the rates of 0.5 and 1.0 mg/litre along with a control of just the basal medium.
The basal medium for studying the response was MS 0 (Murashige T and Skoog F, 1962, Physiol. Planta. 15: 473–497) supplemented with test compounds along with a control of just the basal medium. Measured 0.5 ml medium was poured into 1.5 ml graduated microcentrifuge tubes. Into this, twig cutting of 2.5 cm were inoculated in 20 replicates for each type of medium. These inoculated tubes were put into a half transparent (top lid) box allowing air passage through sterile cotton plugs such that the medium containing portion of the tubes where roots would be initiating is inserted into the stand holes made from a thermocol sheet. Refer FIG. 1 of Sheet #1. […] Such boxes were incubated at normal ambient temperature of 25–28° C. with 14 hours light and 10 hours dark cycle.
To find out the effect of growth promoters such as Indole 3 acetic acid (IAA), 2,4-Dichlorophenoxy acetic acid (2,4-D), and cytokinins such as 6-Benzyl Amino Purine (6-BAP) and Kinetin, the leaf, internode and twig cuttings were inoculated into MS 0 medium containing […] of the above said compounds and the responses were recorded up to two weeks in terms of rooting, callusing and shoot regeneration (Table 1).

Bacopa cultures = conditions: in vivo; cited from earlier work
[2] = tested on: regenerants of Bacopa monniera; conditions: cited from earlier work
Bacopa root tips = type: in vivo, Bacopa monnieri
[3] = tested on: Bacopa monnieri twig cuttings; type: in vivo
[4] = tested on: Avocado cv. Verde in vitro; conditions: antibiotic in the plant growth medium; cited from earlier work
Bacopa monnieri twigs [5] = test: Cytotoxic/weedicidal effect: menthol in medium and Mentha arvensis oil sprayed on twigs; type: in vivo; conditions: menthol added to the medium and oil sprayed on the twigs
Description: We also planned the experiments to determine if this procedure can depict a clear cut manifestation of cytotoxic/weedicidal effect of compounds. For this purpose we used a known essential oil of Mentha arvensis, which is rich in the toxic but useful component, menthol as the treatment. The procedure involved was same as in the above examples with the exception that menthol was added to the medium and oil was sprayed on these twigs which were inoculated into the medium. […] Refer to FIG. #4 of Sheet #2.

Bacopa monnieri twigs [6] = test: Growth inhibitor test on twigs in basal MS media; type: in vivo; conditions: after 10 days of inoculation
Description: The basal medium for studying the response was MS 0 (Murashige T and Skoog F, 1962, Physiol. Planta. 15: 473–497) supplemented with test compounds along with a control of just the basal medium. Measured 0.5 ml medium was poured into 1.5 ml graduated microcentrifuge tubes. Into this, twig cutting of 2.5 cm were inoculated in 20 replicates for each type of medium. These inoculated tubes were put into a half transparent (top lid) box allowing air passage through sterile cotton plugs such that the medium containing portion of the tubes where roots would be initiating is inserted into the stand holes made from a thermocol sheet. Refer FIG. 1 of Sheet #1. This set up was helpful in preventing the light exposure to the root portion while at the same time aerial parts got sufficient light and aeration. Such boxes were incubated at normal ambient temperature of 25–28° C. with 14 hours light and 10 hours dark cycle. […] The earliest response was seen was on day 3 in the case of medium containing ¼th level of nitrogen followed by medium containing normal level of nitrogen, while in the case of zero nitrogen, initiation was observed only after 8 days. Thus, the medium with ¼ nitrogen level of standard MS basal medium was selected for root assays and was referred as MSR (rooting) medium.
The effects of growth inhibitors were also tested using the protocol as described in Example 1. […]

[7] = 10 and 100 μg/ml in MSR, up to day 15
[8] = concentrations ranging from 1 to 100 μg/ml, 14 days

SMILES: O=C(O)COc1ccc(Cl)cc1Cl [2,4-D, 2,4-Dichlorophenoxy acetic acid]
- Response observed, Cutting [1]: Aerial Root
- Response observed, Internode ([1]; MS 0 medium containing 1 mg/ml): Root Initiation; also recorded: Root Thickening; also recorded: Explant Swelling
- Response observed, Leaf ([1]; MS 0 medium containing 1 mg/ml): Root Initiation; also recorded: Root Thickening; also recorded: Callus Initiation
- Response of leaf, internode and cuttings [1]: small thick roots got initiated at the internodes

SMILES: [Cl][Al]([Cl])[Cl] [AlCl3]
- Concentration beyond which Bacopa cultures could not survive (Bacopa cultures): 400 µM

SMILES: c1ccc(CNc2ncnc3nc[nH]c23)cc1 [BAP, 6-Benzyl Amino Purine]
- Response observed, Cutting [1]: Root Initiation and Root
- Response observed, Internode ([1]; MS 0 medium containing 1 mg/ml): Callus Initiation; also recorded: Shoot
- Response observed, Leaf ([1]; MS 0 medium containing 1 mg/ml): Callus Initiation; also recorded: Shoot
- Response of leaf and internodal explant ([1]; MS 0 medium containing 1 mg/ml, up to two weeks): green callus has formed, followed by shoot regeneration
- Response of leaf, internode and cuttings [1]: green callus developed in all three explants followed by shoot regeneration

SMILES: [Cd] [Cd, cadmium]
- Concentration tolerated ([2]; grown with additional supply of Cu): up to 100 μM
- Concentration beyond which regenerants did not survive ([2]; in vivo): 50 µM

SMILES: O=C(O)Cc1c[nH]c2ccccc12 [IAA, Indole 3 acetic acid]
- Response observed, Cutting [1]: Aerial Root
- Response observed, Internode ([1]; MS 0 medium containing 1 mg/ml): Root Initiation
- Response observed, Leaf ([1]; MS 0 medium containing 1 mg/ml): Root Initiation
- Response of leaf, internode and cuttings [1]: profuse rooting

SMILES: c1coc(CNc2ncnc3[nH]cnc23)c1 [Kinetin]
- Response observed, Cutting [1]: Root Initiation and Root
- Response observed, Internode ([1]; MS 0 medium containing 1 mg/ml): No Response
- Response observed, Leaf ([1]; MS 0 medium containing 1 mg/ml): Root Initiation

SMILES: CC(=O)O[C@H]1C(=O)[C@@]2(C)[C@H]([C@H](OC(=O)c3ccccc3)[C@]3(O)C[C@H](OC(=O)[C@H](O)[C@@H](NC(=O)c4ccccc4)c4ccccc4)C(C)=C1C3(C)C)[C@]1(OC(C)=O)CO[C@@H]1C[C@@H]2O [Taxol, taxol]
- Effect on mitotic index (words) (Bacopa root tips; 10 μg/ml): significantly reduce the mitotic index
- Reduction of mitotic index compared to untreated control samples (Bacopa root tips; 10 μg/ml): 2.55 fold
- Number of cells in phase Ana (Bacopa root tips; 10 μg/ml, dipping 3 hours): 01
- Number of cells in phase Meta (Bacopa root tips; 10 μg/ml, dipping 3 hours): 03
- Number of cells in phase Pro (Bacopa root tips; 10 μg/ml, dipping 3 hours): 01
- Number of cells in phase Telo (Bacopa root tips; 10 μg/ml, dipping 3 hours): 00
- Mitotic Index (Bacopa root tips; 10 μg/ml, dipping 3 hours, 10 randomly selected fields): 7.14 ± 1.52
- Effect on mitotic index (words) (Bacopa root tips; 10 μg/ml, listed as taxol): substantial reduction in the mitotic index
- Cell division in the root tips (Bacopa root tips; 100 μg/ml): inhibited almost complete cell division
- Root initiation [3, 7]: inhibited the complete root initiation
- Visible effect on the aerial parts [3, 7]: wilting of the leaves
- Root initiation [3, 8]: did not initiate the roots at all
- Shoot growth and health [3, 8]: no shoot growth; also recorded: wilting and later withering

SMILES: O=C(N[C@H](CO)[C@H](O)c1ccc([N+](=O)[O-])cc1)C(Cl)Cl [chloramphenicol]
- Toxicity to avocado (length of sprouts reduced) [4]: toxic

SMILES: CC1CCC(C(C)C)C(O)C1 (centres unmarked) [menthol]
- Spread of chlorophyll loss (Bacopa monnieri twigs [5]): within a week time covered whole twig

SMILES: CCn1cc(C(=O)O)c(=O)c2ccc(C)nc21 [nalidixic acid, Nalidixic acid]
- Toxicity to avocado (length of sprouts reduced) [4]: toxic
- Root initiation and growth (Bacopa monnieri twigs [6]; 10 μg/ml): roots got initiated from the submerged nodes but their growth was less than the control
- Root initiation and growth (Bacopa monnieri twigs [6]; 100 μg/ml): very small roots arose from submerged node and their growth was completely arrested

SMILES: [H]/N=C(/N)N[C@H]1[C@H](O)[C@@H](O)[C@H](O[C@@H]2O[C@@H](C)[C@](O)(C=O)[C@H]2O[C@@H]2O[C@@H](CO)[C@H](O)[C@@H](O)[C@@H]2NC)[C@@H](N/C(N)=N\[H])[C@@H]1O [streptomycin]
- Toxicity to avocado (length of sprouts reduced) [4]: toxic

Source: patent publication US7262003B2, “Plant test procedure to detect natural, semi-synthetic, synthetic compounds and physical stress factors through expression of distinct responses” (Council of Scientific and Industrial Research, priority 1998, dated 2007)
